# Reference: patent US11104677B2, “Toll-like receptor 9 antagonists” (FRAUNHOFER-GESELLSCHAFT ZUR FÖRDERUNG DER ANGEWANDTEN …, priority 2015, dated 2021)
# Molecular target: T1, TLR9 (Homo sapiens, UniProt Q9NR96)
# T1 construct: expressed in transfected cells; host or cells: NIH 3T3 fibroblasts (mouse), stably transfected, NF-kB driven SEAP reporter
# T1 sequence (Q9NR96 26-1032): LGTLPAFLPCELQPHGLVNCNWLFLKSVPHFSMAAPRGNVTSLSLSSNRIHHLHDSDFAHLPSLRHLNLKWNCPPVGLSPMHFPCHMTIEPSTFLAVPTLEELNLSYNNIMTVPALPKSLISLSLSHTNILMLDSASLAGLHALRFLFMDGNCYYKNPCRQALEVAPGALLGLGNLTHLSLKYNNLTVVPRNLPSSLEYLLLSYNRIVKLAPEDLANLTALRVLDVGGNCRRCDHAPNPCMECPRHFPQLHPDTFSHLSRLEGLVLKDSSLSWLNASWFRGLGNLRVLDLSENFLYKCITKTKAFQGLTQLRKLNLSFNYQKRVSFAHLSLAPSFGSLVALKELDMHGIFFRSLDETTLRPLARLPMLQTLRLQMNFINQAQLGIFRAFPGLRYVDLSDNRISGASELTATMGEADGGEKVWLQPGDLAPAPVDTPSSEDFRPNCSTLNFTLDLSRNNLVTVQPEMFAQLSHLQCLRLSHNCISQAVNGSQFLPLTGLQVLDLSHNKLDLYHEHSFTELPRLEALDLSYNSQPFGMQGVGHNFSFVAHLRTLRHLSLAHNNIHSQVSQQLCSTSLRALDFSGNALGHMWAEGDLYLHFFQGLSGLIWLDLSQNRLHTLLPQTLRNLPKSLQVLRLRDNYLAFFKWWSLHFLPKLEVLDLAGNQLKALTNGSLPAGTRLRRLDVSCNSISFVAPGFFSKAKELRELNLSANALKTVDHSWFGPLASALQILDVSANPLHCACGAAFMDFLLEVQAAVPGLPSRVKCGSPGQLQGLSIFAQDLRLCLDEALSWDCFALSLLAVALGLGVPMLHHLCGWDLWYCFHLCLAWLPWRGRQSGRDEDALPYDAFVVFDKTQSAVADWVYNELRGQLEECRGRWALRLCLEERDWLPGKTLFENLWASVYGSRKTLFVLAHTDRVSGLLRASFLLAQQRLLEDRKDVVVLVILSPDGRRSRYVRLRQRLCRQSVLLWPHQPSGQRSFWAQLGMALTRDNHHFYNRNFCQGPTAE
# Assay: cell-based reporter assay (NIH 3T3 reporter cell line expressing TLR9, NF-kB driven SEAP, stimulated with CpG ODN 2216)
# Conditions: FIG. 3; 5 μM ODN 2216, 0.12 μM-7.8 μM of antagonist
# Description: In context with the present invention, the ‘IC50 value’ is the half maximum inhibitory concentration which is a measure of the effectiveness of a substance inhibiting the function of the TLR9. The IC50 value can be determined by a functional antagonist assay or a competition binding assay. Preferably, the IC50 value is determined by the cell-based reporter assay in section 3, below, of the examples.
# A cell based test-system that allows PAMPs to be identified and differentiated via pattern recognition receptors (PRRs) in a reporter gene assay was used (DE 10 2006 031 483, EP 2 041 172). For this assay human PRRs and co-receptors were stably transfected and expressed in NIH 3T3 fibroblasts. This cell line expresses no other PRRs and contains a reporter gene which is activated by PRR-activation. The induction of receptor complexes by their ligands leads, after a signalling cascade, to an activation of transcription factor NF-kB, which regulates the expression of an additional integrated reporter gene, a secreted alkaline phosphatase (SEAP) (Burger-Kentischer, A.; Abele, I. S.; Finkelmeier, D.; Wiesmüller, K.-H.; Rupp, S., A new cell-based innate immune receptor assay for the examination of receptor activity, ligand specificity, signalling pathways and the detection of pyrogens. J. Immunol. Methods 2010, 358 (1), 93-103).
# This test system mimics elements of the innate human immune system and can selectively recognize a large number of PAMPs with high sensitivity. Consequently, the PRR-specific cell-based high-throughput feature of the reporter cell lines will provide a fast, flexible and convenient means for lead compound screening in the pharmaceutical drug development fields. For the in vitro screening of the top candidates identified at IDR, the Fraunhofer IGB used this cell-based reporter system to identify TLR9 antagonists in order to determine their activity as well their biocompatibility. Within a first step the NIH3T3 cell line expressing TLR9 was used to measure the inhibitory effect of the TLR9 antagonists.
# For the experiment the reporter cell line expressing TL9 was plated in 96-well cell culture plates at a density of 0.3×10^5 cells in DMEM media supplemented with 10% FCS (Invitrogen), 1% L-glutamine (200 mM Invitrogen) and 1% Penicillin-Streptomycin (PenStrep: 100×, Invitrogen). The cells were incubated for 16 h to grow adherent monolayers at 37° C. in a 5% saturated CO2 humidified atmosphere. After overnight incubation, the media was removed and replaced by DMEM medium supplemented with 1% PenStrep, 1% L-glutamine and 0.5% FCS. The media change is important to avoid a unspecific background signal, caused by active remaining phosphatases present in the FCS. The cells are then stimulated with a specific ligand non-methylated CpG ODN 2216 agonist (Invivogen) and the potential antagonists using different concentrations, namely within a range of concentrations of the potential antagonists starting with 0.025 μM (for the antagonist with the highest activity) up to 14 mM for the antagonists with lowest activities.
# The ODN ligand has the sequence 5′-ggGGGACGA:TCGTCgggggg-3′ (SEQ ID No. 1). Those represented by capital letters are phosphodiesters, and those in small letters are phosphorothioate. The Palindrome is underlined.
# The cells were again incubated in a humidified atmosphere for 16h leading to the expression or reduced expression of SEAP and its secretion into the media. Binding of the antagonist leads to a block of the TLR9, resulting in no or in a reduced expression of the reporter gene (SEAP). Therefore, 50 μl supernatant were taken from the cells and transferred into a 96-well PS microplate flat bottom (Greiner BIO-ONE). The enzyme substrate reaction was initiated by adding 50 μl of the specific substrate. SEAP catalyses the hydrolysis of pNPP to the final product para-nitrophenol (yellow), which can be detected in a photometric analysis using an UV-VIS reader at 405 nm. […]
row,ODN2216 signal,SMILES
1,dose dependent reduction of the signal,c1ccc(-n2cc(CNCCCN3CCOCC3)c(-c3cc4ccccc4o3)n2)cc1 [T5570245]

# Same assay, conditions: FIG. 3; 5 μM ODN 2216, 0.12 μM-7.8 μM of antagonist; read-out: IC50 value
row,IC50,SMILES
1,0.8 µM,c1ccc(-n2cc(CNCCCN3CCOCC3)c(-c3cc4ccccc4o3)n2)cc1 [T5570245]

# Same assay, conditions: Table 5; first 30 candidates; ODN 2216 agonist; n≥3
row,SMILES,IC50 in [μM]
1,"c1ccc(-c2cc(-c3cccnc3)nc3ccccc23)cc1 [T5762626, n1c2c(cccc2)c(cc1-c1cccnc1)-c1ccccc1]",agonist

# Same assay, conditions: Table 5; first 30 candidates; ODN 2216 agonist; n≥3; read-out: IC50 in
row,SMILES,IC50
1,"COc1ccc(CCNc2ncnc3c2oc2ccccc23)cc1OC [T5666774, o1c2c(ncnc2NCCc2cc(OC)c(OC)cc2)c2c1cccc2]",30.3 µM
2,"COc1ccccc1N1CCN(c2ccc3ccccc3n2)CC1 [T5547436, O(C)c1ccccc1N1CCN(CC1)c1nc2c(cc1)cccc2]",1160 µM
3,"CN(C)c1ccc(/C=C/c2ccc3ccccc3n2)cc1 [T0506-4124, n1c2c(ccc1\C═C\c1ccc(N(C)C)cc1)cccc2]",312 µM
4,"COc1ccc(/C=C/c2ccc3ccccc3n2)cc1OC [T6895608, O(C)c1cc(ccc1OC)\C═C\c1nc2c(cc1)cccc2]",8.91 µM
5,"c1ccc(-c2cc(-c3ccncc3)nc3ccccc23)cc1 [T6306924, n1c2c(cccc2)c(cc1-c1ccncc1)-c1ccccc1]",870 µM
6,"COc1ccc2nc3c(nc2c1)-c1cccc2cccc-3c12 [T0504-1221, O(C)c1cc2nc3-c4c5c(-c3nc2cc1)cccc5ccc4]",65.6 µM
7,"c1ccc(-c2cn3c(n2)CCc2ccc4cccnc4c2-3)cc1 [T0502-6934, n1c2n(cc1-c1ccccc1)-c1c(CC2)ccc2c1nccc2]",13200 µM
8,"COc1cc(/C=C/c2ccc3ccccc3n2)cc(OC)c1 [T5702130, O(C)c1cc(cc(OC)c1)\C═C\c1nc2c(cc1)cccc2]",7.27 µM
9,"COc1ccc(/C=N/c2ccc3nc(C)ccc3c2)cc1 [T0501-1111, O(C)c1ccc(cc1)\C═N\c1cc2c(nc(cc2)C)cc1]",488 µM
10,"c1ccc2c(NCCNc3ncnc4ccccc34)cccc2c1 [T5807811, n1cnc2c(cccc2)c1NCCNc1c2c(ccc1)cccc2]",57 µM
11,"COCCNc1ncnc2c1c(-c1ccccc1)cn2-c1ccc(OC)cc1 [T6015017, O(C)c1ccc(-n2cc(c3c2ncnc3NCCOC)-c2ccccc2)cc1]",2030 µM
12,"C(=C\c1ccc2ccccc2n1)/c1ccc(N2CCOCC2)cc1 [T6549007, O1CCN(CC1)c1ccc(cc1)\C═C\c1nc2c(cc1)cccc2]",4320 µM
13,"COc1ccc(OCCOc2cccc3cccnc23)cc1 [T5771955, O(CCOc1ccc(OC)cc1)c1c2ncccc2ccc1]",650 µM
14,"c1ccc(-c2nc3ccccc3nc2-c2ccccc2)cc1 [T0504-1257, n1c2c(nc(c1-c1ccccc1)-c1ccccc1)cccc2]",1990 µM
15,"C(=C\c1ccc2ccccc2n1)/c1ccc(-n2ccnc2)cc1 [T5500062, n1c2c(ccc1\C═C\c1ccc(-n3ccnc3)cc1)cccc2]",777 µM
16,"COc1ccc(CCN(C)c2ncnc3c2oc2ccccc23)cc1OC [T0519-4581, o1c2c(ncnc2N(CCc2cc(OC)c(OC)cc2)C)c2c1cccc2]",15.1 µM
17,"c1ccc(N2CCN(c3ccc4ccccc4n3)CC2)cc1 [T6495030, n1c2c(ccc1N1CCN(CC1)c1ccccc1)cccc2]",220 µM
18,"COc1ccc(/C=C/c2ccc3ccccc3n2)c(OC)c1 [T5713724, O(C)c1cc(OC)ccc1\C═C\c1nc2c(cc1)cccc2]",15.9 µM
19,"COc1cccc(OCCCCn2cnc3ccccc32)c1 [T6416309, O(CCCCn1c2c(nc1)cccc2)c1cc(OC)ccc1]",13.3 µM
20,"COc1ccc(/N=C/c2ccc3ncccc3c2)cc1 [T0501-0693, O(C)c1ccc(\N═C\c2cc3c(nccc3)cc2)cc1]",15.7 µM
21,"COc1ccc2c(-c3ccccc3)cc(N3CCOCC3)nc2c1 [T0513-5752, O1CCN(CC1)c1nc2c(ccc(OC)c2)c(c1)-c1ccccc1]",7.77 µM
22,"c1ccc(OCCn2c(-c3ccco3)nc3ccccc32)cc1 [T5456813, o1cccc1-c1nc2c(n1CCOc1ccccc1)cccc2]",73.2 µM
23,"CCOc1ccccc1OCCOc1cccc2cccnc12 [T0513-2251, O(CCOc1c2ncccc2ccc1)c1ccccc1OCC]",1080 µM

# Same assay, conditions: in the presence of 5 μM of the ODN 2216 agonist; read-out: IC50 in
row,IC50,SMILES
1,0.815 µM,c1ccc(-n2cc(CNCCCN3CCOCC3)c(-c3cc4ccccc4o3)n2)cc1 [T5570245]
2,0.896 µM,Clc1ccc(CN2CCC(NCc3ccc(-n4ccnc4)cc3)CC2)cc1 [T6683896]
3,1.6 µM,c1ccc(CN2CCN(c3ccnc(N4CCN(Cc5ccccc5)CC4)n3)CC2)cc1 [T5453081]
4,7.56 µM,c1ccc(Cn2cc(CNCc3ccc(CN4CCOCC4)cc3)c(-c3cccnc3)n2)cc1 [T6216617]
5,1.78 µM,CCN1CCC(NCc2ccc(-n3cnc4ccccc43)cc2)CC1 [T5820428]
6,1.62 µM,COc1cc(CNC2CCN(Cc3ccccc3)CC2)ccc1OCc1c(C)noc1C [T5364934]
7,6.32 µM,COc1ccc(CN2CCN(Cc3c(-c4ccccc4)nc4ccccn34)CC2)cc1OC [T5635793]
8,6.43 µM,CC(C)(c1ccccc1)c1ccc(OCCCNCCN2CCOCC2)cc1 [T5793071]
9,0.962 µM,COc1cc(CN2CCN(CCN3CCCC3)CC2)ccc1OCc1ccc(Cl)cc1 [T5428933]
10,1.44 µM,CCN1CCC(NCc2cn(-c3ccccc3)nc2-c2ccc3c(c2)OCCO3)CC1 [T5581955]
11,0.201 µM,CN(C)CCCNCc1cn(-c2ccccc2)nc1-c1ccc2c(c1)OCCO2 [T5581953]
12,7.51 µM,COc1ccc(-c2nn(-c3ccccc3)cc2CNCc2ccccc2CN2CCOCC2)cc1OC [T6083277]
13,3.82 µM,Clc1ccc(-c2nn(Cc3ccccc3)cc2CN2CCN(CCN3CCCC3)CC2)cc1 [T5535483]
14,1.87 µM,CCCN1CCC(NCc2cn(-c3ccccc3)nc2-c2ccc3c(c2)OCCO3)CC1 [T5587050]
15,6.78 µM,COc1ccc(CNc2nc3ccccc3n2CCN2CCCCC2)cc1OC [T0503-2983]
16,0.0536 µM,COc1cc2nc(-c3ccccc3)nc(N3CCN(CCN4CCCC4)CC3)c2cc1OC [T5669070]
17,3.14 µM,COc1ccc(-c2nn(-c3ccccc3)cc2CNCc2ccccc2CN2CCOCC2)cc1 [T5571341]
18,3.16 µM,c1ccc(-n2cc(CNCCN3CCCC3)c(-c3ccc4c(c3)OCCO4)n2)cc1 [T5581956]
